# PubChem BioAssay AID200 (DTP/NCI, 2004)
# Several values for one entry are separate records, joined by “and”; a condition that tells them apart may be missing. Equal values may be shown once. Inconclusive results and toxic doses are left out.
# System: B6C3F1 mice, B16 melanoma ip, median survival T/C
# Experiment: NCI In Vivo Anticancer Drug Screen. Data for tumor model B16 Melanoma (intraperitoneal) in B6C3F1 mice
# Details: endpoint: median survival time, schedule: Q01DX009 (ip), higher = longer survival
# Experimental: The antitumor activity of compounds was measured in mice bearing transplantable tumors. Survival or tumor size were measured and the results are expressed as the measurement made in the treated group (T) divided by the measurement made in the vehicle treated control group (C). The tumor model used in this assay is B16 Melanoma (intraperitoneal) in B6C3F1 mice
# [1] = dose: 12.5 mg/kg/injection, vehicle: saline with Tween-80
# [2] = dose: 25.0 mg/kg/injection, vehicle: Klucel (hydroxypropylcellulose) (HPC)
# [3] = dose: 25.0 mg/kg/injection, vehicle: saline with Tween-80
# [4] = dose: 50.0 mg/kg/injection, vehicle: saline with Tween-80
# [5] = dose: 100.0 mg/kg/injection, vehicle: saline with Tween-80
# [6] = dose: 200.0 mg/kg/injection, vehicle: saline with Tween-80
# [7] = dose: 400.0 mg/kg/injection, vehicle: saline with Tween-80
# [8] = dose: 12.5 mg/kg/injection, vehicle: saline
# [9] = dose: 25.0 mg/kg/injection, vehicle: saline
# [10] = dose: 50.0 mg/kg/injection, vehicle: saline
# [11] = dose: 100.0 mg/kg/injection, vehicle: saline
# [12] = dose: 200.0 mg/kg/injection, vehicle: saline
structure (smiles),measurement,setting,value
S=C(Nc1ccc(Cl)c(Cl)c1)N1c2ccccc2-n2cccc2C1c1cccnc1 (configuration not stated),T/C,"dose: 12.5 mg/kg/injection, vehicle: Klucel (hydroxypropylcellulose) (HPC)",90 % of control and 98 % of control and 102 % of control
same,T/C,[1],99 % of control
same,T/C,[2],91 % of control and 94 % of control and 98 % of control
same,T/C,[3],102 % of control
same,T/C,"dose: 50.0 mg/kg/injection, vehicle: Klucel (hydroxypropylcellulose) (HPC)",90 % of control and 104 % of control and 107 % of control
same,T/C,[4],99 % of control
same,T/C,"dose: 100.0 mg/kg/injection, vehicle: Klucel (hydroxypropylcellulose) (HPC)",88 % of control and 91 % of control and 97 % of control
same,T/C,[5],107 % of control
same,T/C,"dose: 200.0 mg/kg/injection, vehicle: Klucel (hydroxypropylcellulose) (HPC)",114 % of control and 90 % of control (2×)
same,T/C,[6],102 % of control
same,T/C,"dose: 400.0 mg/kg/injection, vehicle: Klucel (hydroxypropylcellulose) (HPC)",91 % of control
CC(=O)Oc1c[nH]c(=O)[nH]c1=O,T/C,"dose: 12.5 mg/kg/injection, vehicle: distilled water + Tween-80",99 % of control
same,T/C,[1],97 % of control
same,T/C,"dose: 25.0 mg/kg/injection, vehicle: distilled water + Tween-80",103 % of control
same,T/C,[3],98 % of control
same,T/C,"dose: 50.0 mg/kg/injection, vehicle: distilled water + Tween-80",103 % of control
same,T/C,[4],98 % of control
same,T/C,"dose: 100.0 mg/kg/injection, vehicle: distilled water + Tween-80",102 % of control
same,T/C,[5],90 % of control
same,T/C,"dose: 200.0 mg/kg/injection, vehicle: distilled water + Tween-80",98 % of control
same,T/C,[6],95 % of control
same,T/C,"dose: 400.0 mg/kg/injection, vehicle: distilled water + Tween-80",92 % of control
same,T/C,[7],98 % of control
COC1C(O)CC(OC2CC(Oc3cc4cc5c(c(O)c4c(O)c3C)C(=O)[C@@H](OC3CC(OC4CC(OC6CC(C)(O)C(OC(C)=O)C(C)O6)C(O)C(C)O4)C(O)C(C)O3)[C@H]([C@H](OC)C(=O)[C@@H](O)[C@@H](C)O)C5)OC(C)C2OC(C)=O)OC1C (some centres not stated),T/C,"dose: 0.01 mg/kg/injection, vehicle: Klucel (hydroxypropylcellulose) (HPC)",165 % of control
same,T/C,"dose: 0.04 mg/kg/injection, vehicle: Klucel (hydroxypropylcellulose) (HPC)",151 % of control
same,T/C,"dose: 0.08 mg/kg/injection, vehicle: Klucel (hydroxypropylcellulose) (HPC)",196 % of control
same,T/C,"dose: 0.16 mg/kg/injection, vehicle: Klucel (hydroxypropylcellulose) (HPC)",171 % of control
CC(C)c1cc(C(=O)O)c(O)c(C(C)C)c1.CC(C)c1cc(C(=O)O)c(O)c(C(C)C)c1.[Cu],T/C,"dose: 1.5 mg/kg/injection, vehicle: saline with Tween-80",92 % of control
same,T/C,"dose: 3.0 mg/kg/injection, vehicle: saline with Tween-80",96 % of control
same,T/C,"dose: 6.0 mg/kg/injection, vehicle: saline with Tween-80",97 % of control
same,T/C,"dose: 12.0 mg/kg/injection, vehicle: saline with Tween-80",106 % of control
same,T/C,[1],102 % of control
same,T/C,"dose: 24.0 mg/kg/injection, vehicle: saline with Tween-80",89 % of control
CN1CCN(c2ccc([N+](=O)[O-])c3no[n+]([O-])c23)CC1,T/C,"dose: 2.5 mg/kg/injection, vehicle: saline with Tween-80",101 % of control
same,T/C,"dose: 5.0 mg/kg/injection, vehicle: saline with Tween-80",111 % of control
same,T/C,"dose: 20.0 mg/kg/injection, vehicle: saline with Tween-80",95 % of control
[CH3][Sn]([CH3])([Cl])[S]CCN,T/C,"dose: 3.12 mg/kg/injection, vehicle: saline",109 % of control and 102 % of control
same,T/C,"dose: 6.25 mg/kg/injection, vehicle: saline",95 % of control and 96 % of control
same,T/C,[8],96 % of control and 102 % of control
same,T/C,[9],100 % of control
same,T/C,[10],97 % of control
COC(=O)Nc1cn2cc(C(=O)c3cccs3)ccc2n1,T/C,"dose: 6.25 mg/kg/injection, vehicle: Klucel (hydroxypropylcellulose) (HPC)",122 % of control
same,T/C,[2],159 % of control and 175 % of control
same,T/C,"dose: 50.0 mg/kg/injection, vehicle: other",179 % of control
NC(CS)C(=O)O (configuration not stated),T/C,[10],93 % of control and 104 % of control
same,T/C,[5],107 % of control
same,T/C,[11],93 % of control and 103 % of control
same,T/C,[6],109 % of control
same,T/C,[12],93 % of control
same,T/C,[7],107 % of control
same,T/C,"dose: 400.0 mg/kg/injection, vehicle: saline",116 % of control and 92 % of control
same,T/C,"dose: 800.0 mg/kg/injection, vehicle: saline with Tween-80",100 % of control
CCCCCC#CC1OC12CCCCC2 (configuration not stated),T/C,[1],100 % of control
same,T/C,[8],99 % of control
same,T/C,[3],100 % of control
same,T/C,[9],105 % of control
same,T/C,[4],108 % of control
same,T/C,[10],104 % of control
same,T/C,[5],100 % of control
same,T/C,[11],97 % of control
same,T/C,[6],93 % of control
same,T/C,[12],95 % of control
